Among the data in patent US12409171B2, “Pharmaceutically active pyrazolo-pyridone modulators of DCN1/2-mediated cullin neddylation” (UNIVERSITY OF KENTUCKY RESEARCH FOUNDATION, priority 2019, dated 2025) are EC50 values, retold here.

SMILES strings stand for the structures.

Sequence of DCN1 (Q96GG9 whole entry): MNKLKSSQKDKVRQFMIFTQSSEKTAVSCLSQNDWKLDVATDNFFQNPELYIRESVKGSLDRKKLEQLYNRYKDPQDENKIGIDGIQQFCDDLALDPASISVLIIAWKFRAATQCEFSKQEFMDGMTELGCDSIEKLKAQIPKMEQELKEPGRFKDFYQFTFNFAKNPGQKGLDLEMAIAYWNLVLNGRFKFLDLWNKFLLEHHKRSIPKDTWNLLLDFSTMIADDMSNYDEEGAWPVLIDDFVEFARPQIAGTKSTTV

In the experiment the target is DCN1 (Homo sapiens (Human), UniProt Q96GG9). Kind of experiment: TR-FRET binding assay (biotin-DCN1 / Ac-UBE2M12-AlexaFluor488). The note with it: mean ± SD (n); read-out: DCN1_TRFRET Mean EC50. The method, boiled down:
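Biotinylated DCN1 binding to Ac-UBE2M12-AlexaFluor488 read by TR-FRET; assay cocktail pre-incubated 1 h at room temperature before compounds added from DMSO stocks by pin transfer. IC50 is the mean of three replicates ± SD; compounds tested in triplicate or more.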
For orientation: TR-FRET usually uses a lanthanide donor and a delayed reading to cut background.
As for `CCN1C(=O)[C@@H](NC(=O)c2cccc(C)c2)[C@@H](c2ccc(F)cc2)c2c(C)nn(CC(F)(F)F)c21` [RG-0008871, N-[(4S,5S)-7-ethyl-4-(4-fluorophenyl)-3-methyl-6-oxo-1-(2,2,2-trifluoroethyl)-1H,4H,5H,6H,7H-pyrazolo[3,4-b]pyridin-5-yl]-3-methylbenzamide], the concentration giving a half-maximal response (EC50) was 729 ± 90.1 nM.
On to `C=CC(=O)NCc1nn(-c2ccccc2)c2c1[C@H](c1ccc(F)cc1)[C@H](NC(=O)c1cccc(C)c1)C(=O)N2CC` [RG-0013063, N-[(4S,5S)-7-ethyl-4-(4-fluorophenyl)-6-oxo-1-phenyl-3-[(prop-2-enamido)methyl]-1H,4H,5H,6H,7H-pyrazolo[3,4-b]pyridin-5-yl]-3-methylbenzamide], for which the EC50 turned out to be 96.8 ± 7.21 nM.
Regarding `CCN1C(=O)[C@@H](NC(=O)c2cccc(C(F)(F)F)c2)[C@@H](c2ccc(F)cc2)c2c(CN3CCC(C)CC3)nn(-c3ccccc3)c21` [RG-0014143, N-[(4S,5S)-7-ethyl-4-(4-fluorophenyl)-3-[(4-methylpiperidin-1-yl)methyl]-6-oxo-1-phenyl-1H,4H,5H,6H,7H-pyrazolo[3,4-b]pyridin-5-yl]-3-(trifluoromethyl)benzamide], the EC50 is 82.7 ± 7.69 nM.
On to `C=CC(=O)NCc1nn(-c2ccccc2)c2c1[C@H](c1ccc(F)cc1)[C@H](NC(=O)c1cccc(C(F)(F)F)c1)C(=O)N2CC` [RG-0014047, N-[(4S,5S)-7-ethyl-4-(4-fluorophenyl)-6-oxo-1-phenyl-3-[(prop-2-enamido)methyl]-1H,4H,5H,6H,7H-pyrazolo[3,4-b]pyridin-5-yl]-3-(trifluoromethyl)benzamide], for which the EC50 amounted to 95.3 ± 4.67 nM.
For `CCN1C(=O)[C@@H](NC(=O)c2cccc(C)c2)[C@@H](c2ccc(F)cc2)c2c(C)nn(-c3ccccc3F)c21` [RG-0008870, N-[(4S,5S)-7-ethyl-1-(2-fluorophenyl)-4-(4-fluorophenyl)-3-methyl-6-oxo-1H,4H,5H,6H,7H-pyrazolo[3,4-b]pyridin-5-yl]-3-methylbenzamide] the value was 187 ± 5.73 nM; for `Cc1nn(-c2ccccc2)c2c1[C@H](c1ccc(F)cc1)[C@H](N(C)C(=O)c1cccc(C(F)(F)F)c1)C(=O)N2C` [RG-0008886, N-[(4S,5S)-4-(4-fluorophenyl)-3,7-dimethyl-6-oxo-1-phenyl-1H,4H,5H,6H,7H-pyrazolo[3,4-b]pyridin-5-yl]-N-methyl-3-(trifluoromethyl)benzamide], above 36500 nM; for `Cc1cccc(C(=O)N[C@@H]2C(=O)N(C)c3c(c(C)nn3C(C)(C)C)[C@@H]2c2ccc(F)cc2)c1` [RG-0007412, N-[(4S,5S)-1-tert-butyl-4-(4-fluorophenyl)-3,7-dimethyl-6-oxo-1H,4H,5H,6H,7H-pyrazolo[3,4-b]pyridin-5-yl]-3-methylbenzamide], 2340 ± 745 nM.
In the case of `CCN1C(=O)[C@@H](NC(=O)c2cccc(C(F)(F)F)c2)[C@@H](c2ccc(F)cc2)c2c(CN3CCC(F)(F)CC3)nn(-c3ccccc3)c21` [RG-0014146, N-[(4S,5S)-3-[(4,4-difluoropiperidin-1-yl)methyl]-7-ethyl-4-(4-fluorophenyl)-6-oxo-1-phenyl-1H,4H,5H,6H,7H-pyrazolo[3,4-b]pyridin-5-yl]-3-(trifluoromethyl)benzamide], the EC50 was determined as 321 ± 27.3 nM.
Turning to `CCCn1nc(C)c2c1N(C)C(=O)[C@@H](NC(=O)c1cccc(C)c1)[C@H]2c1ccc(F)cc1` [RG-0007411, N-[(4S,5S)-4-(4-fluorophenyl)-3,7-dimethyl-6-oxo-1-propyl-1H,4H,5H,6H,7H-pyrazolo[3,4-b]pyridin-5-yl]-3-methylbenzamide], the EC50 came to 585 ± 106 nM.
`CC(=O)NCN1C(=O)[C@@H](NC(=O)c2cccc(C(F)(F)F)c2)[C@@H](c2ccc(F)cc2)c2c(C)nn(-c3ccccc3)c21` [RG-0013840, N-[(4S,5S)-7-(acetamidomethyl)-4-(4-fluorophenyl)-3-methyl-6-oxo-1-phenyl-1H,4H,5H,6H,7H-pyrazolo[3,4-b]pyridin-5-yl]-3-(trifluoromethyl)benzamide]: the EC50 was above 36500 nM.
Take `CCN1C(=O)[C@@H](NC(=O)c2cccc(C(F)(F)F)c2)[C@@H](c2ccc(F)cc2)c2c(CNC(=O)CCOCCOCCOCCOCCNC(=O)CCCCC3SCC4NC(=O)NC43)nn(-c3ccccc3)c21` (stereo partly drawn) [RG-0014148, N-{[(4S,5S)-7-ethyl-4-(4-fluorophenyl)-6-oxo-1-phenyl-5-[3-(trifluoromethyl)benzamido]-1H,4H,5H,6H,7H-pyrazolo[3,4-b]pyridin-3-yl]methyl}-1-(5-{2-oxo-hexahydro-1H-thieno[3,4-d]imidazol-4-yl}pentanamido)-3,6,9,12-tetraoxapentadecan-15-amide]: the concentration giving a half-maximal response (EC50) worked out at 102 ± 15.9 nM.
With `CCN1C(=O)[C@@H](NC(=O)c2cccc(-c3ccccc3)c2)[C@@H](c2ccc(F)cc2)c2c(C)nn(-c3ccccc3)c21` [RG-0013978, N-[(4S,5S)-7-ethyl-4-(4-fluorophenyl)-3-methyl-6-oxo-1-phenyl-1H,4H,5H,6H,7H-pyrazolo[3,4-b]pyridin-5-yl]-[1,1′-biphenyl]-3-carboxamide], the EC50 was determined as 1310 ± 97.3 nM.
For `CCN1C(=O)[C@@H](NC(=O)c2cccc(C)c2)[C@@H](c2ccc(F)cc2)c2c(CO)nn(-c3ccccc3)c21` [RG-0008880, N-[(4S,5S)-7-ethyl-4-(4-fluorophenyl)-3-(hydroxymethyl)-6-oxo-1-phenyl-1H,4H,5H,6H,7H-pyrazolo[3,4-b]pyridin-5-yl]-3-methylbenzamide] the value was 173 ± 29.7 nM; for `CCN1C(=O)[C@@H](NS(=O)(=O)c2cccc(C(F)(F)F)c2)[C@@H](c2ccc(F)cc2)c2c(C)nn(-c3ccccc3)c21` [RG-0013808, N-[(4S,5S)-7-ethyl-4-(4-fluorophenyl)-3-methyl-6-oxo-1-phenyl-1H,4H,5H,6H,7H-pyrazolo[3,4-b]pyridin-5-yl]-3-(trifluoromethyl)benzene-1-sulfonamide], above 36500 nM; for `CCN1C(=O)[C@@H](NC(=O)c2cccc(C(F)(F)F)c2)[C@@H](c2ccc(F)cc2)c2c(CNS(C)(=O)=O)nn(-c3ccccc3)c21` [RG-0014140, N-[(4S,5S)-7-ethyl-4-(4-fluorophenyl)-3-(methanesulfonamidomethyl)-6-oxo-1-phenyl-1H,4H,5H,6H,7H-pyrazolo[3,4-b]pyridin-5-yl]-3-(trifluoromethyl)benzamide], 94.7 ± 19.7 nM.
Take `CCN1C(=O)[C@@H](NC(=O)C(C)(C)C)[C@@H](c2ccc(F)cc2)c2c(C)nn(-c3ccccc3)c21` [RG-0014063, N-[(4S,5S)-7-ethyl-4-(4-fluorophenyl)-3-methyl-6-oxo-1-phenyl-1H,4H,5H,6H,7H-pyrazolo[3,4-b]pyridin-5-yl]-2,2-dimethylpropanamide]: the concentration for a half-maximal effect (EC50) was above 36500 nM.
With `C=CCN1C(=O)[C@@H](NC(=O)c2cccc(C(F)(F)F)c2)[C@@H](c2ccc(F)cc2)c2c(C)nn(-c3ccccc3)c21` [RG-0014007, N-[(4S,5S)-4-(4-fluorophenyl)-3-methyl-6-oxo-1-phenyl-7-(prop-2-en-1-yl)-1H,4H,5H,6H,7H-pyrazolo[3,4-b]pyridin-5-yl]-3-(trifluoromethyl)benzamide] the figure was 1550 ± 157 nM; with `CCN1C(=O)[C@@H](NC(=O)c2cccc(C)c2)[C@@H](c2ccc(F)cc2)c2c(C)nn(C3CCCCC3)c21` [RG-0008877, N-[(4S,5S)-1-cyclohexyl-7-ethyl-4-(4-fluorophenyl)-3-methyl-6-oxo-1H,4H,5H,6H,7H-pyrazolo[3,4-b]pyridin-5-yl]-3-methylbenzamide], 835 ± 34.8 nM.

Usually EC50 stands for the concentration at which the effect is half-maximal.
